Patent US12221406B2, “Compounds as NLRP3 inflammasome inhibitors and compositions and uses thereof” (VIRGINIA COMMONWEALTH UNIVERSITY, priority 2019, dated 2025)

Target: NLRP3 inflammasome (Mus musculus, UniProt Q8R4B8)
Test: IL-1β release from J774A.1 cells upon LPS/ATP stimulation (ELISA)
Method: Next, test compounds were added for 30 min. ATP (5 mM) was added at the same time when compounds were added to induce NLRP3 inflammasome activation. After 30 min, the supernatants were collected and the level of IL-1β was measured with a mouse IL-1β ELISA kit following the manufacturer's instructions. Primary peritoneal macrophages were similarly treated as described with J774A.1 cell line followed by ELISA analysis for IL-β production.

Sequence of NLRP3 inflammasome (Q8R4B8 whole entry): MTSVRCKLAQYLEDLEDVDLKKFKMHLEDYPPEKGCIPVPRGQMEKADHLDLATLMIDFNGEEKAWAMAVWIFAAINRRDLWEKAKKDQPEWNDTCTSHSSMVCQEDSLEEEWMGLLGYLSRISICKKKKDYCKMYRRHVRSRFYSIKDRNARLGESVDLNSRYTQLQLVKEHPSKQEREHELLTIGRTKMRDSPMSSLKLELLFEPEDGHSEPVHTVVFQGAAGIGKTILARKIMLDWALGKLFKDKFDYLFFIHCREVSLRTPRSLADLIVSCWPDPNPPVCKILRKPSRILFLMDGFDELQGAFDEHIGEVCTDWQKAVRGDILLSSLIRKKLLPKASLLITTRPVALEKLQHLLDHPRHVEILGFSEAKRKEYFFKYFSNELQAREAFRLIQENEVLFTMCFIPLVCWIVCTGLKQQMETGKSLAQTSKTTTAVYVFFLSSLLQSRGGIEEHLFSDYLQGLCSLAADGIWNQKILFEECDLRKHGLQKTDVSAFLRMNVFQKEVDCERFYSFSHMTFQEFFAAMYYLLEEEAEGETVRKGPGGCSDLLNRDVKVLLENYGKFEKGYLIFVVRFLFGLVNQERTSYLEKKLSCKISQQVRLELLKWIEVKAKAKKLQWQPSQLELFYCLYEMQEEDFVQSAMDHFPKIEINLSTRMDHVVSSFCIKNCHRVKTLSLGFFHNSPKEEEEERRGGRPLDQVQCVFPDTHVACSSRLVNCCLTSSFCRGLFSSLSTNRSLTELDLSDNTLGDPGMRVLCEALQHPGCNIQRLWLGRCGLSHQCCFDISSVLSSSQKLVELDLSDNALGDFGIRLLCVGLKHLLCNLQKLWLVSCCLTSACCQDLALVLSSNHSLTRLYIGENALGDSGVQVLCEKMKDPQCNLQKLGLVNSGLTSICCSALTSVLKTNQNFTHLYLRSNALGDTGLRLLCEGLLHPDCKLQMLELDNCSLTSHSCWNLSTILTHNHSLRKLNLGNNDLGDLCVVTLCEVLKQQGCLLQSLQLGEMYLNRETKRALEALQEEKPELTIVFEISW

O=C(NCCc1ccc(S(=O)(=O)N2CCCC2)cc1)c1cc(Cl)ccc1C(=O)c1ccccc1 [SZ-N3I-64]
IC50: 1000 to 10000 nM

CCCOc1ccc(Cl)cc1CN(CCc1ccc(S(=O)(=O)NCc2ccc(OC)cc2)cc1)C(=O)Cc1ccccc1 [SZ-N3I-24]
IC50: < 1000 nM

C#CCNS(=O)(=O)c1ccc(CCN(Cc2cc(Cl)ccc2C(F)(F)F)C(=O)Cc2ccsc2)cc1 [SZ-N3I-89]
IC50: < 1000 nM

C#CCNS(=O)(=O)c1ccc(CCN(Cc2cccc3c2OCO3)C(=O)Cc2ccsc2)cc1 [SZ-N3I-88]
IC50: < 1000 nM

C#CCNS(=O)(=O)c1ccc(CCN(Cc2cc(Cl)ccc2N)C(=O)Cc2ccsc2)cc1 [SZ-N3I-86]
IC50: 1000 to 10000 nM

CCCN(CCc1ccc(S(=O)(=O)NC)cc1)Cc1cc(Cl)ccc1OC [SZ-N3I-20]
IC50: 1000 to 10000 nM

CCCOc1ccc(Cl)cc1CN(CCc1ccc(S(=O)(=O)N2CCNCC2)cc1)C(=O)Cc1ccsc1 [SZ-N3I-69]
IC50: 1000 to 10000 nM

CCCCCC(=O)N(CCc1ccc(S(=O)(=O)NC)cc1)Cc1cc(Cl)ccc1OC [SZ-N3I-16]
IC50: 1000 to 10000 nM

O=C(NCCc1ccc(S(=O)(=O)N2CCCC2)cc1)c1cc(Cl)ccc1C(O)c1ccccc1 (stereo not drawn) [SZ-N3I-66]
IC50: 1000 to 10000 nM

C#CCNS(=O)(=O)c1ccc(CCN(Cc2cc(Cl)ccc2OCCC)C(=O)[C@H]2NCCS2)cc1 [SZ-N3I-75]
IC50: 1000 to 10000 nM

C#CCNS(=O)(=O)c1ccc(CCN(Cc2cc(Cl)ccc2OCCC)C(=O)[C@H](N)Cc2ccccc2)cc1 [SZ-N3I-77]
IC50: 1000 to 10000 nM

C=CCN(CCc1ccc(S(=O)(=O)NC)cc1)Cc1cc(Cl)ccc1OC [SZ-N3I-14]
IC50: 1000 to 10000 nM

CCCOc1ccc(Cl)cc1CN(CCc1ccc(C(=O)NCc2ccc(OC)cc2)cc1)C(=O)Cc1ccccc1 [SZ-N3I-39]
IC50: < 1000 nM

CCCCCCCOc1ccc(Cl)cc1CN(CCc1ccc(S(=O)(=O)NCc2ccc(OC)cc2)cc1)C(=O)Cc1ccccc1 [SZ-N3I-29]
IC50: > 30000 nM

C=CC(=O)N(CCc1ccc(S(=O)(=O)NCc2ccc(OC)cc2)cc1)Cc1cc(Cl)ccc1OC [SZ-N3I-26]
IC50: < 1000 nM

O=C(NCCc1ccc(S(=O)(=O)NCc2ccccc2)cc1)c1cc(Cl)ccc1C(=O)c1ccccc1 [SZ-N3I-63]
IC50: < 1000 nM

C#CCNS(=O)(=O)c1ccc(CCN(Cc2cc(Cl)ccc2OCCC)C(=O)[C@H](N)c2ccsc2)cc1 [SZ-N3I-84]
IC50: 1000 to 10000 nM

C#CCNS(=O)(=O)c1ccc(CCN(Cc2cc(Cl)ccc2OCCC)C(C)C)cc1 [SZ-N3I-68]
IC50: 1000 to 10000 nM

C#CCNS(=O)(=O)c1ccc(CCN(Cc2cc(Cl)ccc2OCCC)C(=O)[C@@H](N)Cc2cccs2)cc1 [SZ-N3I-78]
IC50: < 1000 nM

C#CCNS(=O)(=O)c1ccc(CCN(Cc2cc(Cl)ccc2[N+](=O)[O-])C(=O)[C@@H](N)Cc2cccs2)cc1 [SZ-N3I-87]
IC50: < 1000 nM

CCCCN(CCCC)C(=O)c1ccc(CCN(Cc2cc(Cl)ccc2OCCC)C(=O)Cc2ccccc2)cc1 [SZ-N3I-38]
IC50: < 1000 nM

C#CCNS(=O)(=O)c1ccc(CCN(Cc2cc(Cl)ccc2OCCO)C(=O)Cc2ccsc2)cc1 [SZ-N3I-74]
IC50: 1000 to 10000 nM

C#CCNS(=O)(=O)c1ccc(CCN(Cc2cc(Cl)ccc2OCCC)C(=O)C(N)C(C)C)cc1 (stereo not drawn) [SZ-N3I-70]
IC50: 1000 to 10000 nM

C#CCNS(=O)(=O)c1ccc(CCN(Cc2cc(Cl)ccc2OCCC)C(=O)[C@H]2CCCN2)cc1 [SZ-N3I-72]
IC50: 1000 to 10000 nM

CCCOc1ccc(Cl)cc1CN(CCc1ccc(C(=O)OC)cc1)C(=O)Cc1ccccc1 [SZ-N3I-35]
IC50: < 1000 nM

C#CCNS(=O)(=O)c1ccc(CCN(Cc2cc(Cl)ccc2OCCN2CCOCC2)C(=O)Cc2ccsc2)cc1 [SZ-N3I-73]
IC50: 1000 to 10000 nM

COc1ccc(CNS(=O)(=O)c2ccc(CCN(Cc3cc(Cl)ccc3OCC3CC3)C(=O)Cc3ccccc3)cc2)cc1 [SZ-N3I-25]
IC50: 1000 to 10000 nM

CCCOc1ccc(Cl)cc1CN(CCc1ccc(C(=O)NC)cc1)C(=O)Cc1ccccc1 [SZ-N3I-36]
IC50: 1000 to 10000 nM

C#CCNC(=O)c1ccc(CCN(Cc2cc(Cl)ccc2OCCC)C(=O)Cc2ccsc2)cc1 [SZ-N3I-61]
IC50: < 1000 nM

COc1ccc(CNS(=O)(=O)c2ccc(CCN(Cc3cc(Cl)ccc3OC)C(=O)Cc3ccccc3)cc2)cc1 [SZ-N3I-22]
IC50: < 1000 nM

CCCCN(CCCC)S(=O)(=O)c1ccc(CCN(Cc2cc(Cl)ccc2OCCC)C(=O)Cc2ccccc2)cc1 [SZ-N3I-31]
IC50: > 30000 nM

C#CCCC1(CCOc2ccc(Cl)cc2CN(CCc2ccc(S(=O)(=O)NCC#C)cc2)C(=O)Cc2ccsc2)N=N1 [SZ-N3I-82]
IC50: < 1000 nM

COc1ccc(CNS(=O)(=O)c2ccc(CCN(Cc3cc(Cl)ccc3OCc3ccccc3)C(=O)Cc3ccccc3)cc2)cc1 [SZ-N3I-28]
IC50: 1000 to 10000 nM

C#CCNS(=O)(=O)c1ccc(CCN(Cc2cc(Cl)ccc2OCCC)C(=O)[C@@H]2CCCN2)cc1 [SZ-N3I-71]
IC50: 1000 to 10000 nM

C=CCOc1ccc(Cl)cc1CN(CCc1ccc(S(=O)(=O)NCc2ccc(OC)cc2)cc1)C(=O)Cc1ccccc1 [SZ-N3I-27]
IC50: < 1000 nM

C#CCNS(=O)(=O)c1ccc(CCN(Cc2cc(Cl)ccc2OCCC)C(=O)[C@@H](N)c2ccsc2)cc1 [SZ-N3I-85]
IC50: < 1000 nM

C#CCNS(=O)(=O)c1ccc(CCN(Cc2cc(Cl)ccc2O)C(=O)Cc2ccsc2)cc1 [SZ-N3I-81]
IC50: < 1000 nM

CCOc1ccc(Cl)cc1CN(CCc1ccc(S(=O)(=O)NCc2ccc(OC)cc2)cc1)C(=O)Cc1ccccc1 [SZ-N3I-23]
IC50: 1000 to 10000 nM

CCCCN(CCCC)S(=O)(=O)c1ccc(CCN(Cc2cc(Cl)ccc2OC)C(=O)Cc2ccccc2)cc1 [SZ-N3I-30]
IC50: 1000 to 10000 nM

C#CCNS(=O)(=O)c1ccc(CCN(Cc2cc(Cl)ccc2OCCC)C(=O)[C@@H](N)Cc2ccsc2)cc1 [SZ-N3I-79]
IC50: < 1000 nM

CNS(=O)(=O)c1cc(CCNC(=O)c2cc(Cl)ccc2OC)co1 [SZ-N3I-33]
IC50: 1000 to 10000 nM

C#CCNS(=O)(=O)c1ccc(CCN(Cc2cc(Cl)ccc2[N+](=O)[O-])C(=O)Cc2ccsc2)cc1 [SZ-N3I-83]
IC50: < 1000 nM

C#CCNS(=O)(=O)c1ccc(CCN(CCCCC)Cc2cc(Cl)ccc2OCCC)cc1 [SZ-N3I-67]
IC50: 1000 to 10000 nM

C#CCNC(=O)c1ccc(CCN(Cc2cc(Cl)ccc2OCCC)C(=O)Cc2ccccc2)cc1 [SZ-N3I-37]
IC50: < 1000 nM

CCCOc1ccc(Cl)cc1CN(CCc1ccc(S(=O)(=O)N2CCOCC2)cc1)C(=O)Cc1ccsc1 [SZ-N3I-80]
IC50: < 1000 nM

CNS(=O)(=O)c1ccc(CCN(Cc2cc(Cl)ccc2OC)C(=O)Cc2ccccc2)cc1 [SZ-N3I-12]
IC50: < 1000 nM

O=C(NCCc1ccc(S(=O)(=O)NCc2ccccc2)cc1)c1cc(Cl)ccc1C(O)c1ccccc1 (stereo not drawn) [SZ-N3I-65]
IC50: 1000 to 10000 nM

C=CCN(CCc1ccc(S(=O)(=O)NC)cc1)C(=O)c1cc(Cl)ccc1C(=O)c1ccccc1 [SZ-N3I-32]
IC50: 1000 to 10000 nM

CCC(=O)N(CCc1ccc(S(=O)(=O)NC)cc1)Cc1cc(Cl)ccc1OC [SZ-N3I-18]
IC50: 1000 to 10000 nM

CCCOc1ccc(Cl)cc1CN(CCc1ccc(C(=O)OC)cc1)C(=O)Cc1ccsc1 [SZ-N3I-60]
IC50: 1000 to 10000 nM

COc1ccc(Cl)cc1C(=O)NCCc1ccc(S(=O)(=O)NCCOCCOCCCCCCCl)cc1 [SZ-N3I-62]
IC50: 1000 to 10000 nM
